From patent US12564547B2, “Compositions, formulations, and methods for skin treatment” (Oddity Labs, LLC, priority 2022, dated 2026)

What was measured:
Assay type in all cases: cell-based
TK.6 lymphoblasts = experiment: In vitro genotoxicity: TK.6 micronuclei assay (FIG. 5B) and SOS chromotest (FIG. 5C); details: TK.6 micronuclei assay without S9, 24 hr, and SOS chromotest; across a concentration range
Method: (§1) The safety/toxicology profiles of a compound or salt of the present disclosure was evaluated via a series of in vitro genotoxicity assays, including the SOS-chromotest to determine bacterial genotoxicity, and the TK.6 micronucleus assay to determine chromosomal damage and forward mutations. Standard reactive oxygen species (ROS) and caspase 3/7 assay were conducted to determine general cellular toxicity. Moreover, a series of sensitization tests were conducted to predict any potential skin sensitivity. These include the direct peptide reactivity assay to evaluate haptenization, the KeratinoSens reporter assay to determine any potential sensitivity via the activation of a cytoprotective pathway, and an immunological assay using human immature monocyte-derived dendritic cells to evaluate any potential immunogenicity.
TK.6 lymphoblasts are a cell line used for gene mutation analyses. TK.6 lymphoblasts are heterozygous for the thymidine kinase gene (TK) and enable the detection of forward mutations and chromosomal damage, which manifests as micronuclei. TK.6 lymphoblasts are detectable via flow cytometry. TK.6 cells were dosed with the compounds or a vehicle control (0.1% v/v DMSO) and cultured without S9 metabolic activation for 24 hr. FIG. 5A-FIG. 5E show the results of in vitro genotoxicity assay and the TK.6 micronucleus assay. FIG. 5A are example plots of TK.6 cells treated with compound V-1. Methyl methanesulfonate, a genotoxic, alkylating agent was used as a positive control for micronuclei detection. […] The SOS chromotest is a bacteria-based test for genotoxicity. […] Cells were treated with either the compounds or vehicle control containing correspondingly % v/v-matched amounts of DMSO. High represents 10 µg/mL while low represents 1 μg/mL. Tested compounds elicited no or minor caspase 3/7 activation at low and high concentrations. In FIG. 5A-FIG. 5E, data represents mean±s.d. and representative of at least 2 experimental replicates.

human dermal fibroblasts = experiment: Human dermal fibroblast cells (hDFC) proliferation, cell viability assay (CellTiter-Glo, manual cell counting); details: hDFCs proliferation; control is DMSO
Nrf2-ARE pathway = experiment: KeratinoSens Nrf2-ARE reporter assay (ARE-luciferase activity); details: across a concentration range
Method: as §1
The Nrf2-ARE pathway is a master regulator of cytoprotective responses to oxidative stress, and is an early indicator of skin sensitization. Nrf2 (nuclear factor erythroid 2-related factor) is a transcription factor that binds to antioxidant responsive elements (ARE). By fusing ARE to the light-producing luciferase gene, a KeratinoSens Nrf2-ARE reporter assay was constructed whereby luciferase signal is directly correlated to Nrf2-ARE pathway activation. […] FIG. 6B describes an in vitro dendritic cell sensitization test. Dendritic cell activation is widely-associated with downstream immunogenicity. CD14+ cells from human donor peripheral mononuclear cells were harvested and differentiated them into immature monocyte-derived DCs using granulocyte-macrophage colony-stimulating factor (GM-CSF) and interleukin-4 (IL-4), then treated with the lead compounds. Killed E. Coli and TNF-α were used as positive controls. FIG. 6C-FIG. 6E are example plots showing change in HLA-DR expression. Expression of CD80 (FIG. 6C), PDL-1 (FIG. 6D), and CD141 (FIG. 6E) as quantified via mean fluorescence intensity (MFI) following dosing with example compounds. […] In FIG. 6A-FIG. 6E, data represents mean±s.d. and representative of at least 2 experimental replicates.

| SMILES | genotoxic transformation potential (TK.6 lymphoblasts) | Activity (Percent Increase Proliferation of hFDPCs (%)) (human dermal fibroblasts) | skin sensitizing potential (Nrf2-ARE pathway activation) (Nrf2-ARE pathway) |
| --- | --- | --- | --- |
| Cn1c(SCC(=O)N2CCCCCC2)nnc1-c1ccccc1 [I-1, 1-(azepan-1-yl)-2-[(4-methyl-5-phenyl-1,2,4-triazol-3-yl)sulfanyl]ethanone] | mild genotoxicity at higher concentrations | C (increased proliferation of hFDPCs equals to or larger than 4% and less than 8%) | did not exhibit apparent Nrf2-ARE pathway activation |
| CCCCC(=O)NCCc1ccc(OC)cc1 [II-1, N-[2-(4-methoxyphenyl)ethyl]pentanamide] | mild genotoxicity at higher concentrations | C (increased proliferation of hFDPCs equals to or larger than 4% and less than 8%) | did not exhibit apparent Nrf2-ARE pathway activation |
| COc1ccc(NC(=O)C(=O)NCCCn2ccnc2)cc1 [III-1, N-(3-imidazol-1-ylpropyl)-N′-(4-methoxyphenyl)oxamide] | mild genotoxicity at higher concentrations | D (increased proliferation of hFDPCs equals to or larger than 8%) | did not exhibit apparent Nrf2-ARE pathway activation |
| Cc1[nH]c2ccc(C(=O)NCC3CCCO3)cc2c1C (stereo not drawn) [IV-1, 2,3-dimethyl-N-(oxolan-2-ylmethyl)-1H-indole-5-carboxamide] | mild genotoxicity at higher concentrations | C (increased proliferation of hFDPCs equals to or larger than 4% and less than 8%) | exhibited sensitizing potential |
| CN(C)C(=O)COC(=O)c1ccc2[nH]c3c(c2c1)CCCC3 [IV-2, [2-(dimethylamino)-2-oxoethyl] 6,7,8,9-tetrahydro-5H-carbazole-3-carboxylate] | mild genotoxicity at higher concentrations | B (increased proliferation of hFDPCs equals to or larger than 1% and less than 4%) | did not exhibit apparent Nrf2-ARE pathway activation |
| CCOCCCn1c(=O)[nH]c2ccccc2c1=O [V-1, 3-(3-ethoxypropyl)-1H-quinazoline-2,4-dione] | did not exhibit any genotoxic transformation potential | C (increased proliferation of hFDPCs equals to or larger than 4% and less than 8%) | did not exhibit apparent Nrf2-ARE pathway activation |
